“And” between values parts separate entries of the source, which are not always exact repeats. Equal values may be shown once. “Also recorded” adds a separate entry of the source.
Key:
[1] = test system: patients with PD; test: Sleep diary: total sleep time and REM-behavior disorder; assay type: in vivo, human
Procedure: FIG. 3 is a chart of total sleep time in relation to squalamine dose. Total sleep time was obtained from the sleep diary by subtracting awake time during the night from total time spent in bed. Total sleep time per night was logged for each patient at baseline, each dosing period and at washout, and the means were determined. The light grey bar represents the baseline value for each cohort at a given dose level and the dark grey bar represents the value for the same cohort at the stated dose of squalamine (ENT-01; Kenterin™). The number of patients represented at each value are: Baseline, 33; 75 mg, 21; 100 mg, 28; 125 mg, 18; 150 mg, 15; 175 mg, 12; 200 mg, 7; 225 mg, 3; 250 mg, 2; washout, 33. P values were as follows: 75 mg, p=0.4; 100 mg, p=0.1; 125 mg, p=0.3; 150 mg, p=0.07; 175 mg, p=0.03; 200 mg, p=0.3; 225 mg, p=0.5; 250 mg, p=0.3; wash-out, p=0.04 (paired t test).
(5) Sleep Diary (participants completed a sleep diary on a daily basis throughout the study. The diaries included time into bed and estimated time to sleep as well as wake time and duration during the night.); […]

[2] = target: αS (Homo sapiens, UniProt P37840); conditions: in vitro; cited from earlier work
[3] = set-up: species or system rats; conditions: rat, in vivo, po
[4] = test system: patients with PD; test: Circadian rhythm of wrist skin temperature; assay type: in vivo, human; conditions: 12 evaluable patients; for markers of circadian function (IS, RA, CFI, IV) of wrist skin temperature: fixed dose versus baseline
Procedure: (6) I-Button Temperature Assessment. The I-Button is a small, rugged self-sufficient system that measures temperature and records the results in a protected memory section. The Thermochron I-Button DS1921H (Maxim Integrated, Dallas, Tex.) was used for skin temperature measurement. I-Buttons were programmed to sample every 10 mins., and attached to a double-sided cotton sport wrist band using Velcro, with the sensor face of the I-Button placed over the inside of the wrist, on the radial artery of the dominant hand. Subjects removed and replaced the data logger when necessary (i.e., to have a bath or shower). The value of skin temperature assessment in sleep research is that the endogenous skin warming resulting from increased skin blood flow is functionally linked to sleep propensity. From the collected data, the mesor, amplitude, acrophase (time of peak temperature), Rayleight test (an index of interdaily stability), mean waveforms are calculated.);
(§1) Assessments were made at baseline and at the end of the fixed dose and washout periods. Circadian system status was evaluated by continuously monitoring wrist skin temperature (Thermochron iButton DS1921H; Maxim, Dallas) following published procedures (Sarabia et al. 2008).
Circadian rhythm of skin temperature was evaluable in 12 patients (i.e., those who had recordings that extended from baseline through washout). Circadian system functionality was evaluated by continuously monitoring wrist skin temperature using a temperature sensor (Thermochron iButton DS1921H; Maxim, Dallas, Tex.) (Sarabia et al. 2008). […]
Briefly, this analysis includes the following parameters: (i) the inter-daily stability (the constancy of 24-hour rhythmic pattern over days, IS); (ii) intra-daily variability (rhythm fragmentation, IV); (iii) average of 10-minute intervals for the 10 hours with the minimum temperature (L10); (iv) average of 10-minute intervals for the 5 hours with the maximum temperature (M5) and the relative amplitude (RA), which was determined by the difference between M5 and L10, divided by the sum of both. […]

[5] = test system: patients with PD; test: CNS symptoms in Stage 2 (UPDRS, MMSE, PDHQ, BDI-II, hallucinations); assay type: in vivo, human; conditions: for patients whose hallucinations or delusions improved or disappeared during treatment: 6 patients with hallucinations (5) or delusions (1) at baseline
Excerpt: Exploratory end-points, in addition to constipation, included for example, (i) depression assessed using the Beck Depression Inventory (BDI-II) (Steer et al. 2000) and Unified Parkinson's Disease Rating Scale (UPDRS); (ii) cognition assessed using the Mini Mental State Examination (MMSE), Unified Parkinson's Disease Rating Scale (UPDRS), and Trail Making Test (TMT); (iii) sleep and REM-behavior disorder (RBD) using a daily sleep diary, I-Button Temperature Assessment, a REM sleep behavior disorder (RBD) questionnaire (RBDQ) (Stiasny-Kolster et al. 2007), and the UPDRS; (iv) hallucinations assessed using the PD hallucinations questionnaire (PDHQ) (Papapetropoulos et al. 2008), the UPDRS, and direct questioning; (v) fatigue using the Parkinson's Disease Fatigue Scale (PFS-16) and the UPDRS; (vi) motor functions using the UPDRS; and (vii) non-motor functions using the UPDRS.
as §1
An exploratory analysis was done with respect to the sleep data, the body temperature data, mood, fatigue, hallucinations, cognition and other motor and non-motor symptoms of PD. Continuous measurements within a subject were compared with a paired t-test and continuous measurements between subject groups were compared with a two-group t-test. Categorical data were compared with a chi-squared test or a Fisher's exact test if the expected cell counts are too small for a chi-squared test.
CNS symptoms were evaluated at baseline and at the end of the fixed dose period and the wash-out period (Table 12). Total UPDRS score was 64.4 at baseline, 60.6 at the end of the fixed dose period and 55.7 at the end of the wash-out period (p=0.002); similarly, the motor component of the UPDRS improved from 35.3 at baseline to 33.3 at the end of fixed dose to 30.2 at the end of wash-out (p=0.006). MMSE improved from 28.4 at baseline to 28.7 during treatment and to 29.3 during wash-out (p=0.0006). […] PDHQ improved from 1.3 at baseline to 1.8 during treatment and 0.9 during wash-out (p=0.03). Hallucinations were reported by 5 patients at baseline and delusions in 1 patient. […] The frequency of arm or leg thrashing reported in the sleep diary diminished progressively from 2.2 episodes/week at baseline to 0 at maximal dose. […] Unlike stool-related indices, the improvement in many CNS symptoms persisted during wash-out.

## CC(C)[C@@H](CC[C@@H](C)[C@H]1CC[C@H]2[C@@H]3[C@H](O)C[C@H]4C[C@@H](NCCCNCCCCN)CC[C@]4(C)[C@H]3CC[C@]12C)OS(=O)(=O)O (single isomer, unassigned) [squalamine (ENT-01), squalamine]
[1]; dose escalation, Stage 2
  RBD and total sleep time: improved progressively in a dose-dependent manner
[1]; doses beyond 125 mg
  total sleep time versus baseline by dose: consistently higher than baseline beyond 125 mg
[2]
  displacement of αS from membranes: can displace αS from membranes in vitro
[3]
  absorption from the intestine: low
[4]
  markers of circadian function (IS, RA, CFI, IV) of wrist skin temperature: improved all markers of healthy circadian function
[4]; listed as ENT-01
  markers of circadian function (IS, RA, CFI, IV) of wrist skin temperature: significant positive impact; also recorded: improved all markers of healthy circadian function
[4]; wash-out versus baseline (IS, CFI)
  circadian parameters during wash-out period: improvement persisted for several of these circadian parameters
[5]
  patients whose hallucinations or delusions improved or disappeared during treatment: five and 5 of 6
[5]; listed as ENT-01
  patients whose hallucinations or delusions improved or disappeared during treatment: five
[5]; baseline 11.6 to wash-out 9.5
  improvement in Part 1 of the UPDRS: ~20%
[5]; single patients
  time hallucinations/delusions did not return following discontinuation: 4 weeks and 2 weeks

Reference: patent US20200038416A1, “METHODS OF TREATING CARDIAC CONDUCTION DEFECTS USING AMINOSTEROL COMPOSITIONS” (Enterin, Inc., priority 2018, published 2020)
